US10899758B2, “Inhibitors of the menin-MLL interaction” (Vitae Pharmaceuticals, LLC, priority 2016, dated 2021)
pEC50, pIC50: −log10 of the molar value.

Legend:
[1] = biological target: T1, menin/MLL binding (biotinylated wild-type or mutated menin and MLL-AF9 fusion protein) (Homo sapiens, UniProt O00255); assay: Assay 1 (Binding Assay): AlphaLISA menin/MLL binding; settings: 5 nM biotinylated menin, MLL-AF9-FLAG lysate
T1 construct: biotinylated (1) wild-type menin or (2) mutated menin (described in Nature (2012) Vol. 482, pp. 542-548); fused on or other part: Biotin attached chemically (Sulfo-NHS-Biotin); no fused second protein is printed for menin
T1 sequence (O00255 1-459 limits assumed): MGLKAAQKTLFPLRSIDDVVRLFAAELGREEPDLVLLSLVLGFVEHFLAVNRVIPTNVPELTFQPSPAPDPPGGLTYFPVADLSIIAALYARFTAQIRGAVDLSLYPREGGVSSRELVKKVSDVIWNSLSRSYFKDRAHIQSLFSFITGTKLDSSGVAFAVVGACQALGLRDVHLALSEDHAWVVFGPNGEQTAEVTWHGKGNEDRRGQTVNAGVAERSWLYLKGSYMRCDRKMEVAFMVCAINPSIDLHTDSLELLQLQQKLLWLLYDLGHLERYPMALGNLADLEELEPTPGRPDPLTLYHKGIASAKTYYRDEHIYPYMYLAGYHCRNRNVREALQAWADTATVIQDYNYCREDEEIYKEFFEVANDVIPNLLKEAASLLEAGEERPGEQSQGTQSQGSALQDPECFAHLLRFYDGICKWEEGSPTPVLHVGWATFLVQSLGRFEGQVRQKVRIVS
In short: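 Biotinylated E. coli-expressed menin (wild-type or mutant), 5 nM, incubated 30 min RT with compound and HEK293 lysate of MLL1-1,396–AF9-FLAG in pH 7.4 Tris buffer, 5% DMSO, 1 mM DTT. Anti-FLAG acceptor and streptavidin donor beads added, 60 min RT, AlphaLISA signal read. IC50 from four-parameter fit of % inhibition.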

[2] = tested on: human acute monocytic leukemia cell line MV-4-11; assay: Assay 2 (Cell Proliferation Assay), ATP quantitation (CellTiter-Glo); assay type: cell-based; settings: Homo sapiens, MV4-11, 72 h, MV-4-11 cells, read-out: Assay 2 (EC50, inhibition of cell proliferation)
Protocol: Potencies of inhibitor compounds against cell proliferation was assessed against the human acute monocytic leukemia cell line MV-4-11 (ATCC® CRL-9591™) based on ATP quantitation. MV-4-11 cells or toxicity control HL-60 cells (ATCC® CCL-240™) were incubated in 96-well tissue culture plates (1.67×10^4 cells in 200 μL culture media containing 10% FBS per well) with or without test compound for 72 h at 37° C., 5% CO2. After incubation, each well was mixed by pipetting and 95 μL from each well was transferred to a well in 96-well black OptiPlate® plates (PerkinElmer). An equal volume of CellTiter-Glo® Luminescent Cell Viability Assay reagent (Promega) was added to each well, followed by mixing for 5 min on an orbital plate shaker. Luminescence was measured on a Wallac EnVision 2104 Multilabel Reader (PerkinElmer) to quantitate ATP. Percent inhibition of cell proliferation by test compounds was calculated based on uninhibited cell growth (DMSO) versus cells treated with a potent menin inhibitor at a concentration yielding at least 100×LD50.

SMILES	pIC50 [1]	pEC50 [2]
CC(C)N(C(=O)c1cc(F)ccc1-n1cc(C2CN(CC[C@H]3CC[C@H](NS(C)(=O)=O)CC3)C2)c2ccncc21)C(C)C [Example 137, 5-fluoro-N,N-diisopropyl-2-(3-(1-(2-((1r,4r)-4-(methylsulfonamido)cyclohexyl)ethyl)azetidin-3-yl)-1H-pyrrolo[2,3-c]pyridin-1-yl)benzamide]	> 7.00	> 7.00
Cc1c(CN2CCC(c3cn(-c4ccc(F)cc4C(=O)N(C)C(C)C)c4cncnc34)CC2)ccc2[nH]c(C#N)cc12 [Example 63, 2-(7-(1-((2-cyano-4-methyl-1H-indol-5-yl)methyl)piperidin-4-yl)-5H-pyrrolo[3,2-d]pyrimidin-5-yl)-5-fluoro-N-isopropyl-N-methylbenzamide]	> 7.00	> 7.00
CC(C)N(C)C(=O)c1cc(F)ccc1-n1cc(C2CCN(Cc3ccc(F)cc3)CC2)c2ccncc21 [Example 9, 5-fluoro-2-(3-(1-(4-fluorobenzyl)piperidin-4-yl)-1H-pyrrolo[2,3-c]pyridin-1-yl)-N-isopropyl-N-methylbenzamide]	> 7.00	6.00 to 7.00
CC(C)N(C)C(=O)c1cc(F)ccc1-n1cc(C2CCCN(Cc3ccc4c(c3)NC(=O)C4(C)C#N)C2)c2ccncc21 (centres unmarked) [Example 88, 2-(3-(1-((3-cyano-3-methyl-2-oxoindolin-6-yl)methyl)piperidin-3-yl)-1H-pyrrolo[2,3-c]pyridin-1-yl)-5-fluoro-N-isopropyl-N-methylbenzamide]	> 7.00	> 7.00
CC(C)N(CCO)C(=O)c1cc(F)ccc1-n1cc(C2CCN(Cc3ccccc3)CC2)c2ccncc21 [Example 36, 2-(3-(1-benzylpiperidin-4-yl)-1H-pyrrolo[2,3-c]pyridin-1-yl)-5-fluoro-N-(2-hydroxyethyl)-N-isopropylbenzamide]	> 7.00	> 7.00
CC(C)N(C)C(=O)c1cc(F)ccc1-n1c(=O)n(C2CCN(CC[C@H]3CC[C@H](NS(C)(=O)=O)CC3)CC2)c2ccncc21 [Example 78, 5-fluoro-N-isopropyl-N-methyl-2-(1-(1-(2-((1r,4r)-4-(methylsulfonamido)cyclohexyl)ethyl)piperidin-4-yl)-2-oxo-1,2-dihydro-3H-imidazo[4,5-c]pyridin-3-yl)benzamide]	> 7.00	6.00 to 7.00
CC(C)N(C)C(=O)c1cc(F)ccc1-n1cc(C2CCN(CCC3CCN(S(C)(=O)=O)CC3)CC2)c2ccncc21 [Example 28, 5-fluoro-N-isopropyl-N-methyl-2-(3-(1-(2-(1-(methylsulfonyl)piperidin-4-yl)ethyl)piperidin-4-yl)-1H-pyrrolo[2,3-c]pyridin-1-yl)benzamide]	> 7.00	6.00 to 7.00
Cc1c(CN2CCC(c3cn(-c4ccc(F)cc4C(=O)N(C)C(C)C)c4cnccc34)CC2)ccc2[nH]c(C#N)cc12 [Example 2, 2-(3-(1-((2-cyano-4-methyl-1H-indol-5-yl)methyl)piperidin-4-yl)-1H-pyrrolo[2,3-c]pyridin-1-yl)-5-fluoro-N-isopropyl-N-methylbenzamide]	> 7.00	> 7.00
CNC(=O)c1cccc(CCN2CCC(c3cn(-c4ccc(F)cc4C(=O)N(C)C(C)C)c4cnccc34)CC2)c1 [Example 26, 5-fluoro-N-isopropyl-N-methyl-2-(3-(1-(3-(methylcarbamoyl)phenethyl)piperidin-4-yl)-1H-pyrrolo[2,3-c]pyridin-1-yl)benzamide]	> 7.00	6.00 to 7.00
Cc1nnc(C2CC2)n1-c1cc(F)ccc1-n1cc(C2CCCN(Cc3ccc4[nH]c(=O)[nH]c4c3)C2)c2ccncc21 (centres unmarked) [Example 121, 5-((3-(1-(2-(3-cyclopropyl-5-methyl-4H-1,2,4-triazol-4-yl)-4-fluorophenyl)-1H-pyrrolo[2,3-c]pyridin-3-yl)piperidin-1-yl)methyl)-1H-benzo[d]imidazol-2(3H)-one]	> 7.00	> 7.00
CC(C)N(C)C(=O)c1cc(F)ccc1-n1cc([C@H]2CC[C@H](N3CCCC(O)C3)CC2)c2ccncc21 (stereo partly drawn) [Example 112, 5-fluoro-2-(3-(trans-4-(3-hydroxypiperidin-1-yl)cyclohexyl)-1H-pyrrolo[2,3-c]pyridin-1-yl)-N-isopropyl-N-methylbenzamide]	> 7.00	≤ 6.00
CC(C)N(C)C(=O)c1cc(F)ccc1-n1cc([C@H]2CC[C@H](N3CC[C@H](CO)C3)CC2)c2ccncc21 [Example 104, 5-fluoro-2-(3-(trans-4-((S)-3-(hydroxymethyl)pyrrolidin-1-yl)cyclohexyl)-1H-pyrrolo[2,3-c]pyridin-1-yl)-N-isopropyl-N-methylbenzamide]	> 7.00	6.00 to 7.00
CC(C)N(C)C(=O)c1cc(F)ccc1-n1cc(C2CCN(C[C@H]3CC[C@H](NS(C)(=O)=O)CC3)C2)c2ccncc21 (stereo partly drawn) [Example 124, N-methyl-5-fluoro-N-isopropyl-2-(3-(1-((trans-4-(methylsulfonamido)cyclohexyl)methyl)pyrrolidin-3-yl)-1H-pyrrolo[2,3-c]pyridin-1-yl)benzamide]	> 7.00	6.00 to 7.00
CC(C)N(C)C(=O)c1cc(F)ccc1-n1cc(C2CCCN(CC3CCCCC3)C2)c2ccncc21 (centres unmarked) [Example 46, 2-(3-(1-(cyclohexylmethyl)piperidin-3-yl)-1H-pyrrolo[2,3-c]pyridin-1-yl)-5-fluoro-N-isopropyl-N-methylbenzamide]	> 7.00	6.00 to 7.00
CC(C)N(C)C(=O)c1cc(F)ccc1-n1cc([C@H]2CC[C@@H](N3CCC(O)CC3)CC2)c2ccncc21 [Example 109, 5-fluoro-2-(3-(cis-4-(4-hydroxypiperidin-1-yl)cyclohexyl)-1H-pyrrolo[2,3-c]pyridin-1-yl)-N-isopropyl-N-methylbenzamide]	> 7.00	6.00 to 7.00
Cc1c(CN2CCC(c3cn(-c4ccc(F)cc4CC(C)C)c4cnccc34)CC2)ccc2[nH]c(C#N)cc12 [Example 42, 5-((4-(1-(4-fluoro-2-isobutylphenyl)-1H-pyrrolo[2,3-c]pyridin-3-yl)piperidin-1-yl)methyl)-4-methyl-1H-indole-2-carbonitrile]	> 7.00	6.00 to 7.00
CC(C)N(C)C(=O)c1cc(F)ccc1-n1cc([C@H]2CCCN(Cc3ccc4c(c3)[nH]c(=O)n4CCO)C2)c2ccncc21 (single isomer, unassigned) [Example 44A]	> 7.00	> 7.00
CCN(C(=O)c1cc(F)ccc1-n1cc([C@H]2CCCN(Cc3ccc4c(c3)[nH]c(=O)n4CCO)C2)c2ccncc21)C(C)C [Example 49B, (R)-N-ethyl-5-fluoro-2-(3-(1-((1-(2-hydroxyethyl)-2-oxo-2,3-dihydro-1H-benzo[d]imidazol-5-yl)methyl)piperidin-3-yl)-1H-pyrrolo[2,3-c]pyridin-1-yl)-N-isopropylbenzamide]	> 7.00	> 7.00
CC(C)N(C)C(=O)c1cc(F)ccc1-n1cc(C2CCN(CCc3ccc(C(C)(C)C#N)cc3)CC2)c2ccncc21 [Example 29, 2-(3-(1-(4-(2-cyanopropan-2-yl)phenethyl)piperidin-4-yl)-1H-pyrrolo[2,3-c]pyridin-1-yl)-5-fluoro-N-isopropyl-N-methylbenzamide]	> 7.00	6.00 to 7.00
